ChEMBL document CHEMBL3526076, “Species-dependent and receptor-selective action of bilobalide on the function of constitutive androstane receptor and pregnane X receptor” (Drug Metab Dispos, 2012)

Key:
[1] = target: T1, Nuclear receptor subfamily 1 group I member 3 (Rattus norvegicus, UniProt Q9QUS1); assay: Activation of rat CAR expressed in rat hepatocytes coexpressing CYP2B1 at 1 uM after 24 hrs by dual luciferase reporter gene assay; format: ADME, cell-based, Hepatocyte
T1 sequence (Q9QUS1 whole entry): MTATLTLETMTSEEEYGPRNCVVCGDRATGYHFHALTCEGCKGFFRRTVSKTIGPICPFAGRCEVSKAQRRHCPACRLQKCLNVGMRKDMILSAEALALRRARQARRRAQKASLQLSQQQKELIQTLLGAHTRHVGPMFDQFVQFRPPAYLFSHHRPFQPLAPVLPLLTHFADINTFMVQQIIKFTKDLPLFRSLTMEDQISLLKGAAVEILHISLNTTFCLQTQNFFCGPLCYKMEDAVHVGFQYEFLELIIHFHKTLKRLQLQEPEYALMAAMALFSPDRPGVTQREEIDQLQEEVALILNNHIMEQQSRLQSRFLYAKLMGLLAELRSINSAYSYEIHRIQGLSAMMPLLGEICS

[2] = target: T2, Nuclear receptor subfamily 1 group I member 3 (Homo sapiens, UniProt Q14994); assay: Activation of human CAR expressed in human HepG2 cells coexpressing CYP2B6 at 10 uM after 24 hrs by dual luciferase reporter gene assay; format: ADME, cell-based; details: hepg2, 24 h
T2 sequence (Q14994 whole entry): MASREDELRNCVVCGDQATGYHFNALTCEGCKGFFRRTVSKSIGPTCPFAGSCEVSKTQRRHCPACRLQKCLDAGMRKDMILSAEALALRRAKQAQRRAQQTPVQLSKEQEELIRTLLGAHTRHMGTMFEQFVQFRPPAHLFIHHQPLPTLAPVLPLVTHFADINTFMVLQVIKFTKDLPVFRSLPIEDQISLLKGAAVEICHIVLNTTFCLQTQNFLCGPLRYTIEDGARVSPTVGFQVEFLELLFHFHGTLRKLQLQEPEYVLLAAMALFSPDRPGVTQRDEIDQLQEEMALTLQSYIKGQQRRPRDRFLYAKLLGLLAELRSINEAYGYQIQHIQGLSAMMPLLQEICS

[3] = target: T2, Nuclear receptor subfamily 1 group I member 3; assay: Activation of human CAR expressed in human HepG2 cells coexpressing CYP2B6 at 0.25 uM after 24 hrs by dual luciferase reporter gene assay; format: ADME, cell-based; details: hepg2, 24 h
[4] = target: T2, Nuclear receptor subfamily 1 group I member 3; assay: Activation of human CAR expressed in rat hepatocytes coexpressing CYP2B1 at 1 uM after 24 hrs by dual luciferase reporter gene assay; format: ADME, cell-based, Hepatocyte
[5] = target: T3, Nuclear receptor subfamily 1 group I member 2 (Homo sapiens, UniProt O75469); assay: Antagonist activity at human PXR expressed in human HepG2 cells coexpressing CYP3A4 assessed as inhibition of rifampicin-induced receptor activation at 30 uM after 24 hrs by dual luciferase reporter gene assay; format: ADME, cell-based; details: hepg2, 24 h
T3 sequence (O75469 whole entry): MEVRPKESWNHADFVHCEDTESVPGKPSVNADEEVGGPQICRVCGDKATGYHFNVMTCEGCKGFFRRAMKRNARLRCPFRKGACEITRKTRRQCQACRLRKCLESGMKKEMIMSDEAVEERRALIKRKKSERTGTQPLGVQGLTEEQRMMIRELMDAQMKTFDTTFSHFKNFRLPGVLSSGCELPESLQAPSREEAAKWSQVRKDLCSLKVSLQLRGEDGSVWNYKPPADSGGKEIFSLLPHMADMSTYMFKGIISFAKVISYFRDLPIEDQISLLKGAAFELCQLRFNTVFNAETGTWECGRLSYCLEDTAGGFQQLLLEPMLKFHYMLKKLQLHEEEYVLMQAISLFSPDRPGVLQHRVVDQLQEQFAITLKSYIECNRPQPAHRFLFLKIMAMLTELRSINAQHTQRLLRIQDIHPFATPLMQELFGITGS

[6] = target: T4, Nuclear receptor subfamily 1 group I member 2 (Rattus norvegicus, UniProt Q9R1A7); assay: Antagonist activity at rat PXR expressed in human HepG2 cells coexpressing CYP3A4 assessed as inhibition of PCN-induced receptor activation at 30 uM after 24 hrs by dual luciferase reporter gene assay; format: ADME, cell-based; details: hepg2, 24 h
T4 sequence (Q9R1A7 whole entry): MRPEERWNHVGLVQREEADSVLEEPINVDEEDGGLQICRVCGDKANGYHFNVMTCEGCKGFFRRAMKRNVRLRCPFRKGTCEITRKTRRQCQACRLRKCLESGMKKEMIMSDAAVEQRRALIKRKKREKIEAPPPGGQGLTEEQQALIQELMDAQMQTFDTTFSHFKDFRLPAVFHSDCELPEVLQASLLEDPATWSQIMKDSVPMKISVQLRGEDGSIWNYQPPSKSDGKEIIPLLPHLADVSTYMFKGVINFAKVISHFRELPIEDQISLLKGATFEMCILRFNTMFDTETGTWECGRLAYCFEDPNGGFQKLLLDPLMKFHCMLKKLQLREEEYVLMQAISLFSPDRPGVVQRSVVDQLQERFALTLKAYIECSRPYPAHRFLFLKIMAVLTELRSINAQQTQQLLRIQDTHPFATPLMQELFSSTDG

CAR (CYP2B1 reporter) = target: T5, CAR (CYP2B1 reporter) (Rattus norvegicus, UniProt Q9QUS1); assay: Activation of rat CAR expressed in rat hepatocytes coexpressing CYP2B1 at 100 uM after 24 hrs by dual luciferase reporter gene assay relative to control; format: ADME, cell-based, Hepatocyte; details: rat hepatocytes expressing rat CAR and coexpressing CYP2B1, read-out: FC
T5 sequence (Q9QUS1 whole entry): T1 sequence (Q9QUS1 whole entry)

[7] = target: T6, CYP2B1 mRNA (CAR activation) (Rattus norvegicus, UniProt Q9QUS1); assay: Activation of CAR in rat hepatocytes assessed as upregulation of CYP2B1 mRNA expression at 100 uM after 24 hrs by RT-PCR analysis relative to control; format: ADME, cell-based, Hepatocyte; details: read-out: FC
T6 sequence (Q9QUS1 whole entry): T1 sequence (Q9QUS1 whole entry)

[8] = target: T7, CYP2B activity (CAR activation) (Rattus norvegicus, UniProt Q9QUS1); assay: Activation of CAR in rat hepatocytes assessed as increase in CYP2B-mediated benzyloxyresorufin O-dealkylation at 100 uM after 24 hrs by spectrofluorometric analysis relative to control; format: ADME, cell-based, Hepatocyte; details: probe benzyloxyresorufin (O-dealkylation), read-out: FC
T7 sequence (Q9QUS1 whole entry): T1 sequence (Q9QUS1 whole entry)

[9] = target: T3, Nuclear receptor subfamily 1 group I member 2; assay: Activation of human PXR expressed in human HepG2 cells coexpressing CYP3A4 at 10 uM after 24 hrs by dual luciferase reporter gene assay relative to control; details: hepg2, 24 h
PXR (CYP3A4 reporter) [10] = target: T8, PXR (CYP3A4 reporter) (Rattus norvegicus, UniProt Q9R1A7); assay: Activation of rat PXR expressed in rat hepatocytes coexpressing CYP3A4 at 10 uM after 24 hrs by dual luciferase reporter gene assay relative to control; details: rat hepatocytes expressing rat PXR and coexpressing CYP3A4
T8 sequence (Q9R1A7 whole entry): T4 sequence (Q9R1A7 whole entry)

[11] = target: T3, Nuclear receptor subfamily 1 group I member 2; assay: Activation of human PXR expressed in rat hepatocytes coexpressing CYP3A4 at 10 uM after 24 hrs by dual luciferase reporter gene assay relative to control
PXR (CYP3A4 reporter) [12] = target: T8, PXR (CYP3A4 reporter); assay: Activation of rat PXR expressed in human HepG2 cells coexpressing CYP3A4 at 0.1 to 10 uM after 24 hrs by dual luciferase reporter gene assay relative to control; details: human HepG2 cells expressing rat PXR and coexpressing CYP3A4

For Clc1ccc(-c2nc3sccn3c2/C=N/OCc2ccc(Cl)c(Cl)c2)cc1, the Activity [1] was “Not Active” and the Activity [2] was “Active”.

In the case of Clc1cnc(Oc2ccc(Oc3ncc(Cl)cc3Cl)cc2)c(Cl)c1, the Activity [3] is reported as “Not Active” and the Activity [4] is reported as “Not Active”.

For CC(=O)N1CCN(c2ccc(OCC3COC(Cn4ccnc4)(c4ccc(Cl)cc4Cl)O3)cc2)CC1 (stereo not drawn) [KETOCONAZOLE], the “inhibition (INH)” value [5] was “Active” and the “inhibition (INH)” value [6] was “Active”.

Work on CCC1(c2ccccc2)C(=O)NC(=O)NC1=O [PHENOBARBITAL SODIUM] yielded a fold induction at 24 h, 100 µM (CAR (CYP2B1 reporter)) of 9, a fold induction at 24 h, 100 µM [7] of 48 and a fold induction at 24 h, 100 µM [8] of 12.

In the case of CC(=O)[C@H]1[C@H](C#N)C[C@H]2[C@@H]3CC=C4C[C@@H](O)CC[C@]4(C)[C@H]3CC[C@@]21C [PREGNENOLONE CARBONITRILE], the Activity [9] is reported as “Not Active”, the fold induction at 24 h, 10 µM (PXR (CYP3A4 reporter) [10]) is reported as 9 and the Activity [11] is reported as “Not Active”. The fold induction at 24 h, 10 µM (PXR (CYP3A4 reporter) [12]) was 19.
